Measurements from US20230279020A9, “CARM1 INHIBITORS AND USES THEREOF” (Epizyme, Inc., priority 2013, published 2023).

What follows are molecules tested against Human CARM1 (PRMT4) (Homo sapiens (Human), UniProt Q86X55) (assay: CARM1 enzyme assay on peptide substrate (3H-SAM Flashplate)). Details: Biochemical potencies, classification codes; read-out: Biochem IC50.
Text: S-adenosylmethionine (SAM), S-adenosylhomocysteine (SAH), bicine, Tween20, dimethylsulfoxide (DMSO), bovine skin gelatin (BSG), sodium butyrate and Tris(2-carboxyethyl)phosphine hydrochloride solution (TCEP) were purchased from Sigma-Aldrich at the highest level of purity possible. ^3H-SAM was purchase from American Radiolabeled Chemicals with a specific activity of 80 Ci/mmol. 384-well streptavidin Flashplates were purchased from PerkinElmer.
Peptide representative of human histone H3 residues 16-30 was synthesized with an N-terminal linker-affinity tag motif and a C-terminal amide cap by 21st Century Biochemicals. […] The sequence was Biot-Ahx-[…]-amide and contained a monomethylated arginine at position 26 (SEQ ID NO.:1).
The gene sequence encoding isoform1 containing a deletion of amino acids 539-561 was amplified subsequently and subcloned into pFastBacMam (Viva Biotech).
Recombinant baculovirus were generated according to Bac-to-Bac kit instructions (Life Technologies). Protein over-expression was accomplished by infecting exponentially growing HEK 293F cell culture at 1.3×10^6cell/ml with virus (MOI=10) in the presence of 8 mM sodium butyrate. Infections were carried out at 37° C. for 48 hours, harvested by centrifugation, and stored at −80° C. for purification.
Expressed full-length human Flag- and His-tagged CARM1 protein was purified from cell paste by anti-flag M2 affinity chromatography with resin equilibrated with buffer containing 20 mM Tris, 150 mM NaCl, 5% glycerol, pH 7.8. Column was washed with 500 mM NaCl in buffer A and Flag-CARM1-His was eluted with 200 ug/ml FLAG peptide in buffer A. Pooled fractions were dialyzed in 20 mM Tris, 150 mM NaCl, 5% glycerol and 1 mM DTT, pH 7.8.
The assays were all performed in a buffer consisting of 20 mM Bicine (pH=7.6), 1 mM TCEP, 0.005% BSG, and 0.002% Tween 20, prepared on the day of use. Compounds in 100% DMSO (1 ul) were spotted into a polypropylene 384-well V-bottom plates (Greiner) using a Platemate Plus outfitted with a 384-channel head (Thermo Scientific). DMSO (1 ul) was added to Columns 11, 12, 23, 24, rows A-H for the maximum signal control and 1 ul of SAH, a known product and inhibitor of CARM1, was added to columns 11, 12, 23, 24, rows I-P for the minimum signal control. A cocktail (40 ul) containing the CARM1 enzyme was added by Multidrop Combi (Thermo-Fisher). The compounds were allowed to incubate with CARM1 for 30 min at room temperature, then a cocktail (10 ul) containing ^3H-SAM and peptide was added to initiate the reaction (final volume=51 ul). The final concentrations of the components were as follows: CARM1 was 0.25 nM, ^3H-SAM was 30 nM, peptide was 250 nM, SAH in the minimum signal control wells was 1 mM, and the DMSO concentration was 2%. The assays were stopped by the addition of non-radiolabeled SAM (10 ul) to a final concentration of 300 uM, which dilutes the ^3H-SAM to a level where its incorporation into the peptide substrate is no longer detectable. 50 ul of the reaction in the 384-well polypropylene plate was then transferred to a 384-well Flashplate and the biotinylated peptides were allowed to bind to the streptavidin surface for at least 1 hour before being washed once with 0.1% Tween20 in a Biotek ELx405 plate washer. The plates were then read in a PerkinElmer TopCount plate reader to measure the quantity of ^3H-labeled peptide bound to the Flashplate surface, measured as disintegrations per minute (dpm) or alternatively, referred to as counts per minute (cpm).
where dpm=disintegrations per minute, cmpd=signal in assay well, and min and max are the respective minimum and maximum signal controls.
where top and bottom are the normally allowed to float, but may be fixed at 100 or 0 respectively in a 3-parameter fit. The Hill Coefficient normally allowed to float but may also be fixed at 1 in a 3-parameter fit. Y is the % inhibition and X is the compound concentration.

Human CARM1 (PRMT4), sequence (Q86X55 other isoform, or with tags, fused parts or gaps isoform Q86X55-1): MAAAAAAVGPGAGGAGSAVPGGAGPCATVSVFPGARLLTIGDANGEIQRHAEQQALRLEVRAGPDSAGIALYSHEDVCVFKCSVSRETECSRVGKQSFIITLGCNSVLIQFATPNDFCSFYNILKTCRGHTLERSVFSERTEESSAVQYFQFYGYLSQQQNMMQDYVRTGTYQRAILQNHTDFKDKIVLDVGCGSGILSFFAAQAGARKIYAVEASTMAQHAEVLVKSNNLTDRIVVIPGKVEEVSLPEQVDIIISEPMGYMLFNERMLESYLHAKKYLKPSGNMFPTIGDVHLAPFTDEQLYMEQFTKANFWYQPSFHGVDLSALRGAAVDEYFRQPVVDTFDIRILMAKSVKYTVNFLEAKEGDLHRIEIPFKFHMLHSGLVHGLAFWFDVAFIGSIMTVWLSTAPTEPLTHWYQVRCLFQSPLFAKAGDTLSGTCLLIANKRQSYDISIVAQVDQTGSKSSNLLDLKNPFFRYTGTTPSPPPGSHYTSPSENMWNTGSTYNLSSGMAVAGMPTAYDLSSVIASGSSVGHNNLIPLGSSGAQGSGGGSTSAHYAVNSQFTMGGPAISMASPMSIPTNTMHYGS

CNCC(O)COc1cccc(-c2nc(-c3ccncc3)cc(N(C)C3CCOCC3)n2)c1 (stereo not shown) [Example 1-1] and CNCC(O)COc1cccc(-c2cc(N(C)C3CCOCC3)nc(-c3ccncc3)n2)c1 (stereo not shown) [Example 2-1] cannot be ordered by IC50: less than 100 nM for the first, less than 100 nM for the second.

CNCC(O)COc1cccc(-c2nc(-c3c(C)noc3C)cc(N(C)C3CCOCC3)n2)c1 (stereo not shown) [Example 1-1a] and CNC[C@H](O)COc1cccc(-c2nc(NC3CCOCC3)cc(-c3c(C)noc3C)n2)c1 [Example 17-1a] cannot be ordered by IC50: less than 100 nM for the first, less than 100 nM for the second.

CNCC(O)COc1cccc(-c2nc(NC3CNC3)c(C)c(-c3c(C)noc3C)n2)c1 (stereo not shown) [Example 1-3] and CNCC(O)COc1cccc(-c2nc(NC3CC(F)C3)c(C)c(-c3c(C)noc3C)n2)c1 (stereo not shown) [Example 3-3] cannot be ordered by IC50: less than 100 nM for the first, less than 100 nM for the second.

CCc1nc(-c2cccc(OCC(O)CNC)c2)cc(N(C)C2CCOCC2)n1 (stereo not shown) [Example 2-2] and C=C(C)c1nc(-c2cccc(OCC(O)CNC)c2)cc(N(C)C2CCOCC2)n1 (stereo not shown) [Example 5-2] cannot be ordered by IC50: less than 100 nM for the first, less than 100 nM for the second.

CNCC(O)COc1ccc(Cl)c(-c2nc(NC[C@H]3COCCN3C3COC3)c(C)c(-c3c(C)noc3C)n2)c1 (stereo partly shown) [Example 2-3] and CNCC(O)COc1ccc(Cl)c(-c2nc(NCC3CCOCC3)c(C)c(-c3c(C)noc3C)n2)c1 (stereo not shown) [Example 9-3] cannot be ordered by IC50: less than 100 nM for the first, less than 100 nM for the second.

CNCC(O)COc1cccc(-c2nc(N[C@@H]3CCOC3)c(C)c(N3CCOCC3)n2)c1 (stereo partly shown) [Example 3-1] and CNCC(O)COc1cccc(-c2nc(N[C@@H]3CCOC3)c(C)c(N3CC4CN(S(C)(=O)=O)CC4C3)n2)c1 (stereo partly shown) [Example 11-3] cannot be ordered by IC50: less than 100 nM for the first, less than 100 nM for the second.

CNCC(O)COc1cccc(-c2nc(-c3c(C)noc3C)cc(-c3c(C)noc3C)n2)c1 (stereo not shown) [Example 3-1a] and CNCC(O)COc1cc(Cl)cc(-c2nc(-c3c(C)noc3C)cc(-c3c(C)noc3C)n2)c1 (stereo not shown) [Example 4-1a] cannot be ordered by IC50: less than 100 nM for the first, less than 100 nM for the second.

First: CNCC(O)COc1cccc(-c2nccc(NC3CCOCC3)n2)c1 (stereo not shown) [Example 4-1]
Second: CNC[C@@H](O)COc1cccc(-c2nc(NC3CCOCC3)cc(-c3c(C)noc3C)n2)c1 [Example 18-1a]
The IC50 of the first is higher: greater than 10000 nM for the first, less than 100 nM for the second. The second is the more potent here.

CNCC(O)COc1cccc(-c2cc(N(C)C3CCOCC3)nc(C3CC3)n2)c1 (stereo not shown) [Example 4-2] and CNCC(O)COc1cccc(-c2nc(C3CC3)cc(N(C)C3CCOCC3)n2)c1 (stereo not shown) [Example 10-1] cannot be ordered by IC50: less than 100 nM for the first, less than 100 nM for the second.

CNCC(O)COc1ccc(Cl)c(-c2nc(N[C@H]3CCN(C(=O)OC)C[C@H]3F)c(C)c(-c3c(C)noc3C)n2)c1 (stereo partly shown) [Example 4-3] and CNCC(O)COc1ccc(Cl)c(-c2nc(NC[C@H]3CCCO3)c(C)c(-c3c(C)noc3C)n2)c1 (stereo partly shown) [Example 6-3] cannot be ordered by IC50: less than 100 nM for the first, less than 100 nM for the second.

CNCC(O)COc1cccc(-c2nc(-c3c(C)noc3C)cc(N(C)CCC#N)n2)c1 (stereo not shown) [Example 5-1a] and CNCC(O)COc1cccc(-c2nc(C3=CCCC3)cc(N(C)CCC#N)n2)c1 (stereo not shown) [Example 9-1] cannot be ordered by IC50: less than 100 nM for the first, less than 100 nM for the second.

CNCC(O)COc1cccc(-c2nc(NC3(CO)CC3)c(C)c(-c3c(C)noc3C)n2)c1 (stereo not shown) [Example 5-3] and CNCC(O)COc1cccc(-c2nc(NC3(C(F)(F)F)CC3)c(C)c(-c3c(C)noc3C)n2)c1 (stereo not shown) [Example 8-3] cannot be ordered by IC50: less than 100 nM for the first, less than 100 nM for the second.

CNCC(O)COc1cccc(-c2nc(NC3CCOCC3)c(C)c(-c3c(C)noc3C)n2)c1 (stereo not shown) [Example 6-1a] and CNCC(O)COc1cccc(-c2nc(N[C@H]3CCC[C@@H](O)C3)c(C)c(-c3c(C)noc3C)n2)c1 (stereo partly shown) [Example 10-3] cannot be ordered by IC50: less than 100 nM for the first, less than 100 nM for the second.

CNCC(O)COc1cccc(-c2cc(N(C)C3CCOCC3)nc(C(C)C)n2)c1 (stereo not shown) [Example 6-2] and CNCC(O)COc1cccc(-c2cc(N(C)C3CCOCC3)nc(N(C)C)n2)c1 (stereo not shown) [Example 8-2] cannot be ordered by IC50: less than 100 nM for the first, less than 100 nM for the second.

CNCC(O)COc1cc(Cl)cc(-c2nc(NC3CCOCC3)cc(-c3c(C)noc3C)n2)c1 (stereo not shown) [Example 7-1a] and CNCC(O)COc1cc(Cl)cc(-c2nc(N[C@@H]3CCOC3)cc(-c3c(C)noc3C)n2)c1 (stereo partly shown) [Example 10-1a] cannot be ordered by IC50: less than 100 nM for the first, less than 100 nM for the second.

CNCC(O)COc1ccc(Cl)c(-c2nc(NC[C@@H]3CCCO3)c(C)c(-c3c(C)noc3C)n2)c1 (stereo partly shown) [Example 7-3] and CNCC(O)COc1cccc(-c2nc(Nc3nccn3C)c(C)c(-c3c(C)noc3C)n2)c1 (stereo not shown) [Example 18-3] cannot be ordered by IC50: less than 100 nM for the first, less than 100 nM for the second.

CNCC(O)COc1cccc(-c2nc(-c3cncnc3)cc(-c3c(C)noc3C)n2)c1 (stereo not shown) [Example 8-1a] and CNCC(O)COc1cc(Cl)cc(-c2nc(Nc3cncnc3)cc(-c3c(C)noc3C)n2)c1 (stereo not shown) [Example 9-1a] cannot be ordered by IC50: less than 100 nM for the first, less than 100 nM for the second.

C=C(C)c1cc(N(C)C2CCOCC2)nc(-c2cccc(OCC(O)CNC)c2)n1 (stereo not shown) [Example 11-1] and CNCC(O)COc1cccc(-c2nc(C(C)C)cc(N(C)C3CCOCC3)n2)c1 (stereo not shown) [Example 13-1] cannot be ordered by IC50: less than 100 nM for the first, less than 100 nM for the second.

CNCC(O)COc1cccc(-c2nc(N[C@@H]3CCOC3)cc(-c3c(C)noc3C)n2)c1 (stereo partly shown) [Example 11-1a] and CNCC(O)COc1cccc(-c2nc(N[C@H]3CCOC3)cc(-c3c(C)noc3C)n2)c1 (stereo partly shown) [Example 13-1a] cannot be ordered by IC50: less than 100 nM for the first, less than 100 nM for the second.

CNCC(O)COc1cc(Cl)cc(-c2nc(N[C@H]3CCOC3)cc(-c3c(C)noc3C)n2)c1 (stereo partly shown) [Example 12-1a] and Cc1noc(C)c1-c1cc(NC2CCOCC2)nc(-c2cccc(OC[C@@H](O)CN)c2)n1 [Example 15-1a] cannot be ordered by IC50: less than 100 nM for the first, less than 100 nM for the second.

CNCC(O)COc1cccc(-c2nc(-c3c(C)noc3C)c(C)c(N3CC(NC(=O)OC)C3)n2)c1 (stereo not shown) [Example 12-3] and CCC(=O)NC1CN(c2nc(-c3cccc(OCC(O)CNC)c3)nc(-c3c(C)noc3C)c2C)C1 (stereo not shown) [Example 14-3] cannot be ordered by IC50: less than 100 nM for the first, less than 100 nM for the second.

CNCC(O)COc1cccc(-c2nc(-c3c(C)noc3C)c(C)c(N3CC(NC(=O)N(C)C)C3)n2)c1 (stereo not shown) [Example 13-3] and CNCC(O)COc1cccc(-c2nc(-c3c(C)noc3C)c(C)c(N3CCC[C@H](N(C)C(=O)OC)C3)n2)c1 (stereo partly shown) [Example 15-3] cannot be ordered by IC50: less than 100 nM for the first, less than 100 nM for the second.

NCC(O)COc1cccc(-c2nc(N3CCOCC3)cc(N3CCOCC3)n2)c1 (stereo not shown) [Example 14-1] and CNCC(O)COc1cccc(-c2cc(N(C)C3CCOCC3)nc(N3CCOCC3)n2)c1 (stereo not shown) [Example 15-2] cannot be ordered by IC50: less than 100 nM for the first, less than 100 nM for the second.

CNCC(O)COc1cccc(-c2cc(N(C)C3CCOCC3)nc(-c3cccnc3)n2)c1 (stereo not shown) [Example 14-2] and CNCC(O)COc1cccc(-c2cc(N(C)C3CCOCC3)nc(-c3cnc4[nH]ccc4c3)n2)c1 (stereo not shown) [Example 16-2] cannot be ordered by IC50: less than 100 nM for the first, less than 100 nM for the second.

CNCC(O)COc1cccc(-c2nc(N(C)C)cc(N(C)C3CCOCC3)n2)c1 (stereo not shown) [Example 15-1] and CNCC(O)COc1cccc(-c2nc(N(C)C3CCOCC3)cc(C3(C)CC3)n2)c1 (stereo not shown) [Example 19-1] cannot be ordered by IC50: less than 100 nM for the first, less than 100 nM for the second.

Cc1noc(C)c1-c1cc(NC2CCOCC2)nc(-c2cccc(OC[C@H](O)CN)c2)n1 [Example 16-1a] and CNCC(O)COc1cccc(-c2nc(-c3c(C)noc3C)cc(N3CCN(C)CC3)n2)c1 (stereo not shown) [Example 19-1a] cannot be ordered by IC50: less than 100 nM for the first, less than 100 nM for the second.

CCS(=O)(=O)N1CC2(CN(c3nc(-c4cccc(OCC(O)CNC)c4)nc(-c4c(C)noc4C)c3C)C2)C1 (stereo not shown) [Example 16-3] and CNCC(O)COc1cccc(-c2nc(-c3c(C)noc3C)c(C)c(N3CCN(C(=O)OC)C(C(F)F)C3)n2)c1 (stereo not shown) [Example 17-3] cannot be ordered by IC50: less than 100 nM for the first, less than 100 nM for the second.

With CNCC(O)COc1cccc(-c2nc(-c3cncnc3)cc(N(C)CCC#N)n2)c1 (stereo not shown) [Example 18-1] the IC50 was less than 100 nM.
